According to US10584159B2, “Renilla based biosensors for monitoring biomolecule localization and trafficking in cells” (The Royal Institution for the Advancement of …, priority 2014, dated 2020):
Starred links: 1 amine or outer side, 2 acyl side, 3 side chain; linkers in the order of their positions; H or OH if unused. Positions of bridges follow the written chain, without caps; N, C: chain ends. Non-standard residues stand in square brackets, D forms with d. Residues, ends and D or L forms follow the SMILES beside them. No end group written: not given here. *: point of attachment. Leu(3R-OH,Nα-propionyl) = CCC(=O)N[C@H](C(=O)*)[C@H](O)C(C)C; X1 = CC(C)[C@@H](O[*:3])[C@H](N[*:1])C(=O)[*:2]; NMeT = CN[C@H](C(=O)O)[C@@H](C)O; dPhLac = O=C(O)[C@H](O)Cc1ccccc1; NMeA = CN[C@@H](C)C(=O)O; NMeDha = C=C(NC)C(=O)O

Columns and labels:
Type in all cases: cell-based
[1] = target: T1, AT1R (Homo sapiens, UniProt P30556); test: PKN-based RhoA activation BRET assay (PKN-crib-RlucII/rGFP-CAAX) with AT1R
T1 construct: expressed in transfected cells; host or cells: HEK293SL
T1 sequence (P30556 1-359): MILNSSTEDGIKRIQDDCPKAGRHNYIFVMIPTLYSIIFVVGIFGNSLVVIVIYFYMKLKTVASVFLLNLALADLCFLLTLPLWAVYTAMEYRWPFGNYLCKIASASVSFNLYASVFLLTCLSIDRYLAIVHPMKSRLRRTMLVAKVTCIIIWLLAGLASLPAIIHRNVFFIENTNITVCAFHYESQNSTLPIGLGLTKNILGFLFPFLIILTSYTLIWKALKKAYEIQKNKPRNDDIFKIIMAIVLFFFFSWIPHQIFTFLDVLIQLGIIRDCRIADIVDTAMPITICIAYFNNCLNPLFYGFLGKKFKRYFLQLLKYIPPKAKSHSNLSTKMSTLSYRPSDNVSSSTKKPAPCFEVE
Protocol: (§1) BRET measurements for FIGS. 1B to 9D, 25D to 25F. The following day of transfection, cells were detached and replated onto poly-ornithine coated white 96-well plate at a density of 25,000 cells per well. The next day, cells were washed once with pre-warmed Tyrode's buffer (140 mM NaCl, 2.7 mM KCl, 1 mM CaCl2, 12 mM NaHCO3, 5.6 mM D-glucose, 0.5 mM MgCl2, 0.37 mM NaH2PO4, 25 mM HEPES, pH 7.4), and then stimulated with either various concentrations of ligands in Tyrode's buffer for the indicated time, or single concentration of ligands for various times at 37° C. For recycling experiment, after stimulating the cells with the ligands for 30 min at 37° C., they were washed either three times with ice-cold Tyrode's buffer or once with Tyrode's buffer/three times with acid (50 mM sodium citrate, pH 4.0)/two times with Tyrode's buffer. All the washing steps were performed on ice. […] The cell-permeable substrate, coelenterazine 400a was added at a final concentration of 5 μM in Tyrode's buffer 3-4 min before BRET measurements. […] The BRET signal was determined by calculating the ratio of the light intensity emitted by the GFP10 or rGFP over the light intensity emitted by the RlucII. All the BRET measurements were performed in triplicate at 37° C.
PKN-based RhoA activation assay. For FIGS. 25B-D, HEK293SL cells were grown in DMEM supplemented with 6% fetal bovine serum (FBS) and 20 μg/ml gentamycin, at 37° C. Cells were seeded at a density of 7.5×10^5 cells per 100 mm dishes and were transiently transfected the next day with constructs encoding AT1R (3 μg) along with PKN-crib-RlucII (90 ng) and rGFP-CAAX (480 ng) using calcium phosphate method as described previously. After 24 h, cells were detached and seeded onto poly-ornithine-coated 96-well white plates at a density of 25 000 cells per well in media. The next day, cells were washed once with Tyrode's buffer and left in 80 μl of Tyrode's buffer at 37° C. When indicated, cells were treated with Ubo-Qic 100 nM for 30 min or C3 toxin for 3 μg/ml (in FIG. 25I), 4 hours at 37° C. Cell stimulation and BRET measurements were done at RT. BRET signals were monitored by addition of Coel-400a to a final concentration of 5 μM using a Synergy2 (BioTek®) microplate reader. […] For FIG. 25B, a transfection mix of 200 ng of TPαR, 20 ng PKN-RlucII, 600 ng CAAX-rGFP, complemented to 2 μg with ssDNA and PEI at a ratio of PEI:DNA of 3:1, is added to 3 ml of Hek293SL (350 000 cells/ml). Cells were seeded on poly-D-lysine pretreated plates. […] Cells were stimulated for 2 min with the indicated doses of U46619. […] For FIGS. 25I and J, a transfection mix of 200 ng of TPαR, 20 ng PKN-RlucII, 600 ng CAAX-rGFP, complemented to 2 μg with ssDNA and PEI at a ratio of PEI:DNA of 3:1, is added to 3 ml of Hek293SL (350,000 cells/ml). Cells were seeded on poly-D-lysine pretreated plates. 24 h post-transfection, the Rho inhibitor (CT04; Cytoskeleton, Inc) was added when indicated, overnight at final concentration 2 μg/ml. 48 h post-transfection, cells were washed and preincubated in Tyrode +1 mM CaCl2 at 37° C. for 60 min then treated, as indicated, with 100 nM of U46619 or 1 μg/ml of Rho activator II (CN03; Cytoskeleton, Inc) for 1 min at 37° C. […] BRET was measured at 37° C., using a Tristar Microplate Reader (Berthold Technologies).

[2] = target: T2, AT1R (Homo sapiens, UniProt P30556); test: AT1R trafficking to endosomes BRET (AT1R-RlucII/rGFP-endofinFYVE); parameters: expressed in transfected cells; host or cells: HEK293SL (HEK293 for the screen)
T2 sequence (P30556 with tags, fused parts or gaps): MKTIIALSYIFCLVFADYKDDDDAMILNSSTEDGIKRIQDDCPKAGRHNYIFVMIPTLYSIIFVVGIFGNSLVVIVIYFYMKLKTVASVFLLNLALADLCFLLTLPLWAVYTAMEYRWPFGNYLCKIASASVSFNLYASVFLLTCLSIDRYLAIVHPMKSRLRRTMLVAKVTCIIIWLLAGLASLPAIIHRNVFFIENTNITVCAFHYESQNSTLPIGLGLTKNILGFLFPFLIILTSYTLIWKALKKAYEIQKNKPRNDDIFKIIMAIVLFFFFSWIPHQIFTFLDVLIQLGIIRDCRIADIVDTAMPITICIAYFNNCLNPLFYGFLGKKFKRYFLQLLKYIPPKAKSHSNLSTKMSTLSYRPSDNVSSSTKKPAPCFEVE
Protocol: as §1
(§2) Data Analysis. Estimation of the t1/2 and the EC50 values for ligand-mediated endocytosis were calculated using the GraphPad® Prism curve fitting program The curves presented throughout this study, representing the best fits, and were generated using this GraphPad® Prism program as well.

[3] = target: T2, AT1R; test: AT1R sorting to rab4 vesicles BRET (AT1R-RlucII/rGFP-rab4); parameters: expressed in transfected cells; host or cells: HEK293SL (HEK293 for the screen)
Protocol: as §1

[4] = target: T2, AT1R; test: AT1R endocytosis BRET at plasma membrane (AT1R-RlucII/lyn-rGFP); parameters: signal peptide-Flag-human AT1R (spFlag-AT1R); signal peptide (N); expressed in transfected cells; host or cells: HEK293SL (HEK293 for the screen)
Protocol: as §1, §2

[5] = 100 nM Ubo, 30 min pre-incubation

Molecule | impact of Gq inhibition on ligand-mediated Rho activation ([1]; 100 nM Ubo-Qic 30 min, ligand 4 min) | time to maximal AT1R internalization into endosomes ([2]; 100 nM SI or 1 μM DVG) [min] | less efficacious than AngII at promoting AT1R concentration in early endosomes ([2]; 100 nM SI or 1 μM DVG vs 100 nM AngII) [%] | receptor accumulation in endosomes, compared to AngII ([2]; 40 min) | time at which BRET signal plateaued ([3]; 100 nM AngII, 100 nM SI, 1 μM DVG) [min] | EC50 ([4]; FIG. 6B, 30 min, read-out: potency to promote AT1R internalization) [nM] | effect on AngII-mediated BRET increase (Rho sensor) ([1]; 100 nM Ubo, 100 nM AngII 70 s) | effect on DVG- and SI-mediated accumulation of receptors in endosomes [2, 5] | reduction of targeting of AngII-bound AT1R to Rab5 containing endosomes [2, 5] | effect on AngII-bound AT1R in Rab4 vesicles ([3]; 100 nM Ubo, 100 nM AngII 10 min) | effect on AngII-dependent AT1R internalization [4, 5]
DRVYVHPG [DVG, [Asp^1,Val^5, Gly^8]-AngII] | did not affect | 10 | 40 | promoted less receptor accumulation in endosomes | 10 | 75 |  |  |  |  | 
C=C1C(=O)N[C@@H](C)C(=O)N(C)[C@@H](C)C(=O)N[C@@H]([C@H](OC(=O)[C@@H](NC(=O)CC)[C@H](O)C(C)C)C(C)C)C(=O)N(C)[C@@H]([C@@H](C)OC)C(=O)O[C@H](C(C)C)[C@H](NC(C)=O)C(=O)O[C@H](Cc2ccccc2)C(=O)N1C [Ubo-QIC] (Ac-[X1][dPhLac][NMeDha]A[NMeA][X1](Leu(3R-OH,Nα-propionyl))[NMeT](Me); ester 1-C) |  |  |  |  |  |  | partially blocked | had no effect | more than 25% | increased AngII-bound AT1R in Rab 4 and Rab11 vesicles | did not prevent
